# The supplement of paper PMC10307832
# Columns and labels:
# Assay in all cases: relative viability (nuclei count vs DMSO), 5 days (fraction); higher = more cells survive
# [1] = compound: COC1=C(C=C(C=C1)C2=CC3=NC=CN3C(=N2)NC4=C(C=CC=N4)C(=O)N)OC [BAY61-3606] + C[C@@H](Oc1cc(-c2cnn(C3CCNCC3)c2)cnc1N)c1c(Cl)ccc(F)c1Cl [Crizotinib] (partner 1 µM)
# In short: (§1)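 Lung cancer cell lines in 1536-well plates got either a single drug or a fixed anchor-drug dose together with five library-drug doses (not always all listed) in √10 steps, by pin tool, on the day after seeding. Nuclei were counted after 5 days, and relative viability is the treated-to-vehicle ratio of nuclei counts. Values are medians of duplicate plates.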
# [2] = compound: COc1cccc2c1C(=O)c1c(O)c3c(c(O)c1C2=O)C[C@@](O)(C(=O)CO)C[C@@H]3O[C@H]1C[C@H](N)[C@H](O)[C@H](C)O1 [Doxorubicin] + Nc1ncn([C@H]2C[C@H](O)[C@@H](CO)O2)c(=O)n1 [Decitabine] (partner 2 µM)
# In short: as §1
# [3] = compound: COC1=C(C=C(C=C1)C2=CC3=NC=CN3C(=N2)NC4=C(C=CC=N4)C(=O)N)OC [BAY61-3606] + C[C@]1(O)C[C@@H](c2nc(-c3ccc4ccc(-c5ccccc5)nc4c3)c3c(N)nccn32)C1 [Linsitinib] (partner 1 µM)
# In short: as §1
# [4] = compound: COc1cccc2c1C(=O)c1c(O)c3c(c(O)c1C2=O)C[C@@](O)(C(=O)CO)C[C@@H]3O[C@H]1C[C@H](N)[C@H](O)[C@H](C)O1 [Doxorubicin] + CC(=O)c1c(C)c2cnc(Nc3ccc(N4CCNCC4)cn3)nc2n(C2CCCC2)c1=O [Palbociclib] (partner 0.5 µM)
# In short: as §1
Cell Line,relative viability ([1]; first compound 0.02 µM),relative viability ([1]; first compound 0.06325 µM),relative viability ([1]; first compound 0.2 µM),relative viability ([1]; first compound 0.6325 µM),relative viability ([1]; first compound 2 µM),relative viability ([2]; first compound 0.001 µM),relative viability ([2]; first compound 0.003162 µM),relative viability ([2]; first compound 0.01 µM),relative viability ([2]; first compound 0.03162 µM),relative viability ([2]; first compound 0.1 µM),relative viability ([3]; first compound 0.02 µM),relative viability ([3]; first compound 0.06325 µM),relative viability ([3]; first compound 0.2 µM),relative viability ([3]; first compound 0.6325 µM),relative viability ([3]; first compound 2 µM),relative viability ([4]; first compound 0.001 µM),relative viability ([4]; first compound 0.003162 µM),relative viability ([4]; first compound 0.01 µM),relative viability ([4]; first compound 0.03162 µM),relative viability ([4]; first compound 0.1 µM)
LK-2,0.227,0.216,0.228,0.202,0.201,0.238,0.376,0.251,0.258,0.23,0.487,0.529,0.691,0.834,0.412,0.704,0.773,0.637,0.487,0.515
LOU-NH91,0.72,0.722,0.77,0.777,0.662,–,0.816,0.837,0.758,0.693,0.978,0.858,0.977,1.01,0.796,–,0.459,0.564,0.526,0.416
LU99A,0.562,0.468,0.555,0.484,0.305,0.954,1.07,0.951,0.972,0.945,0.544,0.548,0.575,0.501,0.318,0.449,0.521,0.44,0.41,0.417
LXF-289,0.753,0.82,0.795,0.821,0.81,0.41,0.413,0.395,0.317,0.392,0.906,1.02,0.948,1.05,0.569,0.589,0.625,0.549,0.634,0.607
NCI-H23,0.53,0.283,0.505,0.486,0.264,0.335,0.304,0.335,0.284,0.365,0.613,0.689,0.609,0.881,0.423,0.503,0.568,0.479,0.428,0.44
NCI-H322M,0.901,0.756,0.853,0.842,1.01,0.757,0.58,0.735,0.688,0.553,1.05,0.946,0.911,0.925,0.878,0.548,0.482,0.486,0.465,0.465
NCI-H358,0.505,0.342,0.373,0.294,0.162,0.206,0.17,0.154,0.12,0.0966,0.769,0.64,0.699,0.673,0.299,0.129,0.141,0.118,0.0838,0.1
NCI-H441,0.668,0.788,0.833,0.771,0.414,0.597,0.241,0.243,0.157,0.183,0.646,0.628,0.626,0.535,0.38,0.227,0.217,0.229,0.153,0.195
NCI-H460,0.952,0.72,0.913,0.846,0.182,0.445,0.375,0.282,0.0686,0.0323,1.03,0.77,0.752,0.822,0.189,0.103,0.108,0.0853,0.041,0.007
NCI-H520,0.881,0.782,0.871,0.948,0.593,0.53,0.471,0.416,0.328,0.47,1.14,1.04,1.08,1.16,0.94,0.213,0.216,0.183,0.175,0.203
NCI-H647,1.09,1.1,0.963,1.03,0.506,0.39,0.387,0.342,0.206,0.183,1.34,1.46,1.46,1.05,0.661,0.403,0.492,0.412,0.15,0.239
NCI-H650,0.725,0.331,0.701,0.669,0.47,0.287,0.336,0.283,0.265,0.304,1.12,0.934,0.781,1.02,0.596,0.371,0.362,0.325,0.293,0.326
NCI-H661,0.914,0.806,–,0.984,0.957,0.561,0.568,0.506,0.426,0.337,0.868,0.484,0.627,0.616,0.405,0.384,0.407,0.396,0.36,0.34
NCI-H727,0.855,0.706,0.992,0.925,0.738,0.913,0.909,–,0.89,0.909,0.258,0.184,0.386,0.188,0.354,0.655,0.661,–,0.577,0.62
NCI-H838,0.82,0.661,0.814,0.866,0.398,0.485,0.47,0.385,0.328,0.292,1.12,1,1.06,1.13,0.891,0.254,0.234,0.229,0.222,0.184
NCI-H1355,1.08,1.04,1.05,1.07,0.81,0.379,0.424,0.383,0.382,0.349,0.798,0.8,0.799,0.891,0.678,0.423,0.432,0.388,0.38,0.392

Cell Line,relative viability ([1]; first compound 0.02 µM),relative viability ([1]; first compound 0.06325 µM),relative viability ([1]; first compound 0.2 µM),relative viability ([1]; first compound 0.6325 µM),relative viability ([1]; first compound 2 µM),relative viability ([2]; first compound 0.001 µM),relative viability ([2]; first compound 0.003162 µM),relative viability ([2]; first compound 0.01 µM),relative viability ([2]; first compound 0.03162 µM),relative viability ([2]; first compound 0.1 µM),relative viability ([3]; first compound 0.02 µM),relative viability ([3]; first compound 0.06325 µM),relative viability ([3]; first compound 0.2 µM),relative viability ([3]; first compound 0.6325 µM),relative viability ([3]; first compound 2 µM),relative viability ([4]; first compound 0.001 µM),relative viability ([4]; first compound 0.003162 µM),relative viability ([4]; first compound 0.01 µM),relative viability ([4]; first compound 0.03162 µM),relative viability ([4]; first compound 0.1 µM)
NCI-H1437,0.973,0.961,0.854,0.984,0.797,0.538,0.616,0.501,0.417,0.361,1.1,1.1,1.01,1.03,0.813,0.315,0.327,0.294,0.295,0.26
NCI-H1651,0.882,0.873,0.846,0.869,0.777,0.534,0.63,0.638,0.506,0.571,0.908,0.909,0.91,1.12,0.823,0.517,0.546,0.461,0.449,0.483
NCI-H1666,1.13,–,0.782,0.968,0.969,0.671,0.759,0.662,0.692,0.697,0.954,–,0.76,0.954,0.831,–,0.646,0.626,0.565,0.568
NCI-H1734,0.635,0.53,0.601,0.674,0.272,0.491,0.494,0.478,0.462,0.513,0.827,0.853,0.849,0.866,0.607,0.408,0.425,0.324,0.263,0.344
NCI-H1755,0.787,0.786,0.839,0.982,0.721,0.774,0.763,0.736,0.714,0.743,1.06,1.04,1.03,0.981,0.974,0.473,0.481,0.434,0.474,0.468
NCI-H1792,0.944,1.03,0.777,0.947,1.08,0.622,0.677,0.57,0.485,0.525,0.531,0.494,0.591,0.627,0.627,–,0.668,0.651,0.542,0.558
NCI-H1915,0.899,0.914,0.857,0.868,0.707,0.265,0.263,0.283,0.259,0.271,1.1,1.06,1.05,1.06,0.854,0.581,0.536,0.549,0.483,0.543
NCI-H1944,1.08,1.04,0.912,1.07,0.637,0.441,0.506,0.403,0.372,0.439,1.31,1.17,1.1,1.13,1.27,0.374,0.293,0.337,0.272,0.353
NCI-H1975,0.921,0.947,0.907,0.888,0.585,0.391,0.393,0.392,0.317,0.322,1.1,0.813,0.891,0.837,0.615,0.413,0.568,0.501,0.383,0.324
NCI-H1993,0.949,0.87,0.807,0.827,0.636,0.625,0.582,0.546,0.551,0.549,0.688,0.748,0.723,0.7,0.741,0.492,0.695,0.639,0.625,0.649
NCI-H2009,1.06,1.12,1.01,1.08,0.921,0.445,0.384,0.333,0.263,0.274,1.19,1.28,1.18,1.18,1.07,0.238,0.207,0.179,0.0594,0.168
NCI-H2023,0.713,0.61,0.703,0.751,0.53,0.209,0.219,0.171,0.0903,0.0802,0.703,0.681,0.779,0.715,0.557,0.368,0.368,0.254,0.169,0.0764
NCI-H2085,0.858,0.882,0.87,0.863,0.702,0.536,0.5,0.522,0.521,0.553,0.977,0.931,0.853,0.813,0.871,0.472,0.458,0.461,0.53,0.512
NCI-H2087,0.585,0.931,0.818,0.863,0.619,0.291,0.264,0.239,0.242,0.173,0.883,1.13,0.905,1.16,0.732,0.259,0.216,0.235,0.176,0.227
NCI-H2126,1.06,1.01,1,0.973,0.893,0.531,0.608,0.562,0.57,0.587,0.757,0.687,0.742,0.749,0.691,0.349,0.347,0.371,0.345,0.386
